Measured values reported in ChEMBL document CHEMBL1134795 (J Med Chem, 2001).

Legend:
Homo sapiens = organism: Homo sapiens; test: Inhibition of human platelet (isolated from PRP) aggregation; format: functional
[1] = target: T1, Integrin alpha-IIb/beta-3 (Homo sapiens, UniProt P05106+P08514); test: Inhibition of 125 I-fibrinogen binding to ADP-activated gel filtered human platelets
[2] = target: T1, Integrin alpha-IIb/beta-3; test: Inhibition of 125 I-fibrinogen binding to glycoprotein IIb/IIIa receptor; format: protein-complex assay
[3] = terminal elimination half-life for the compound was evaluated after oral administration of a dose of 1 mg/kg in a group of eight conscious dogs; format: ADME, organism-based, Canis lupus familiaris; set-up: dose 1 mg/kg, route oral; conditions: dog, in vivo

T1 sequence (P05106 27-788 limits assumed): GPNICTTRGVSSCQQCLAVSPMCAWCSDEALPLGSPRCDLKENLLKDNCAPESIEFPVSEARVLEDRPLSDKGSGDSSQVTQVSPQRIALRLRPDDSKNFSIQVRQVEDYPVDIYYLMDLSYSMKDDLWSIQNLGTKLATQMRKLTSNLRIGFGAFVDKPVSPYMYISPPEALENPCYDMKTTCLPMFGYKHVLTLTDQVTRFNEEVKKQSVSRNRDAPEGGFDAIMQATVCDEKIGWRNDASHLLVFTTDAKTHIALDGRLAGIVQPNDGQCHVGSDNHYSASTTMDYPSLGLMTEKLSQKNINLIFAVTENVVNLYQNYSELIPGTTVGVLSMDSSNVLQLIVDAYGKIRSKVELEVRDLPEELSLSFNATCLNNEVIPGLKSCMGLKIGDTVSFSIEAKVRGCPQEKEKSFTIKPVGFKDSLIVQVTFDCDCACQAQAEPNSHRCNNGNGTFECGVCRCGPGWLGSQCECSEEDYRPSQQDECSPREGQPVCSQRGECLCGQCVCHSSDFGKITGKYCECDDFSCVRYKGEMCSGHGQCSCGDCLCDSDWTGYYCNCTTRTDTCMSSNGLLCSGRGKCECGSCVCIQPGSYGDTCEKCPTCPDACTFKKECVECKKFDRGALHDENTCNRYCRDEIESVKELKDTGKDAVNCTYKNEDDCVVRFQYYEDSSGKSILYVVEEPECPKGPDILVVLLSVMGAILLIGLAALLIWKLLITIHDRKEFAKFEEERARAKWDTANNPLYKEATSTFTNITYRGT
T1 sequence (P08514 32-887 limits assumed): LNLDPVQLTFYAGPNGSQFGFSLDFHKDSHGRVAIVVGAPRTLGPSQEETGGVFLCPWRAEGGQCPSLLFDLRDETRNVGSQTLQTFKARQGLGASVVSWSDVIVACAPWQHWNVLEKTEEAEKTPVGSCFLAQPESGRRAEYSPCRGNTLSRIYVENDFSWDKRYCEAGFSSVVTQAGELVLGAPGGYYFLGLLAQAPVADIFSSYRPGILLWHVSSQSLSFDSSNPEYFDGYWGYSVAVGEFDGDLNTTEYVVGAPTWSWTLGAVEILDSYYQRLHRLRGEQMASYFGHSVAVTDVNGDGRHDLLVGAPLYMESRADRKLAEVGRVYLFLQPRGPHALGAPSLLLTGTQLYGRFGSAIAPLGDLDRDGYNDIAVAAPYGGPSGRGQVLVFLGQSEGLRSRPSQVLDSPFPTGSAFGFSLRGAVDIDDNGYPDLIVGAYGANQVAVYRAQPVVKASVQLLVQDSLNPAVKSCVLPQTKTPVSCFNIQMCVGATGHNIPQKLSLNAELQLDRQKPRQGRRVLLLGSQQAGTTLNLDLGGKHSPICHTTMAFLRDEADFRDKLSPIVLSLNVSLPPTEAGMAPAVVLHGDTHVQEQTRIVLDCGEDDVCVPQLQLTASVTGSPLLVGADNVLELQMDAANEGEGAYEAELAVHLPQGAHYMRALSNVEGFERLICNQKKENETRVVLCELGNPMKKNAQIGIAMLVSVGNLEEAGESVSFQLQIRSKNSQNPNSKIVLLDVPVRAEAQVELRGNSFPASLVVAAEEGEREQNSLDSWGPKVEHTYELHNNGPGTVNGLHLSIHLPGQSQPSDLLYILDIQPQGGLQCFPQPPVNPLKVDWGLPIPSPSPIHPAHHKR
T1 sequence (P08514 891-1039 limits assumed): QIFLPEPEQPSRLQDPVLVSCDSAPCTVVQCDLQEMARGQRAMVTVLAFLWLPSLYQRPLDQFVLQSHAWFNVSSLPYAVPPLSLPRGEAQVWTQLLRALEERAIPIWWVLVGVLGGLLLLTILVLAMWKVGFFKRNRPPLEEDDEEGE

Row | Structure (SMILES) | IC50 (Homo sapiens; Homo sapiens) | further results
1 | N=C(N)c1ccc(CC2NC(=O)N(CC(=O)N[C@@H](CC(=O)O)C(=O)N[C@H](C(=O)O)c3ccccc3)C2=O)cc1 (stereo partly drawn) | 200 nM | 
2 | N=C(N)NCCC[C@@H]1NC(=O)N(CC(=O)N[C@@H](CC(=O)O)C(=O)N[C@H](C(=O)O)c2ccccc2)C1=O |  | Ki [1]: 120 nM
3 | CC(C)[C@H](NC(=O)[C@H](CC(=O)O)NC(=O)CN1C(=O)N[C@@H](CCCN=C(N)N)C1=O)C(=O)O | 1000 nM | 
4 | CC(C)C[C@H](NC(=O)[C@H](CC(=O)O)NC(=O)CN1C(=O)N[C@@H](CCCN=C(N)N)C1=O)C(=O)O | 3000 nM | 
5 | COC(=O)[C@@H](NC(=O)[C@H](CC(=O)O)NC(=O)CN1C(=O)NC(C)(c2ccc(C(=N)N)cc2)C1=O)c1ccccc1 (stereo partly drawn) | 70 nM | 
6 | N=C(N)c1ccc(/C=C2/NC(=O)N(CC(=O)N[C@@H](CC(=O)O)C(=O)N[C@H](C(=O)O)c3ccccc3)C2=O)cc1 | 150 nM | 
7 | N=C(N)NCCC[C@@H]1NC(=O)N(CC(=O)N[C@@H](CC(=O)O)C(=O)N[C@H](C(=O)O)C2CCCCC2)C1=O | 1500 nM | 
8 | N=C(N)Nc1ccc(CC2NC(=O)N(CC(=O)N[C@@H](CC(=O)O)C(=O)N[C@H](C(=O)O)c3ccccc3)C2=O)cc1 (stereo partly drawn) | 5500 nM | 
9 | CC1(c2ccc(C(=N)N)cc2)NC(=O)N(CC(=O)N[C@@H](CC(=O)O)C(=O)NC2C3CC4CC(C3)CC2C4)C1=O (stereo partly drawn) | 25 nM | 
10 | CCN1C(=O)N(CC(=O)NC(CC(=O)O)c2ccccc2)C(=O)C1(C)c1ccc(C(=N)N)cc1 (stereo not drawn) | 500 nM | 
11 | CC1(c2ccc(C(=N)N)cc2)NC(=O)N(CC(=O)NCC(NC(=O)OCc2ccccc2)C(=O)O)C1=O (stereo not drawn) | 300 nM | 
12 | N=C(N)c1ccc(C2(C3CC3)NC(=O)N(CC(=O)N[C@@H](CC(=O)O)C(=O)N[C@H](C(=O)O)c3ccccc3)C2=O)cc1 (stereo partly drawn) | 20 nM | 
13 | CC1(c2ccc(NC(=N)N)cc2)NC(=O)N(CC(=O)N[C@@H](CC(=O)O)C(=O)N[C@H](C(=O)O)c2ccccc2)C1=O (stereo partly drawn) | 150 nM | 
14 | N=C(N)Nc1ccc(C2NC(=O)N(CC(=O)N[C@@H](CC(=O)O)C(=O)N[C@H](C(=O)O)c3ccccc3)C2=O)cc1 (stereo partly drawn) | 200 nM | Ki [2]: 30 nM
15 | CC1(c2ccc(CN)cc2)NC(=O)N(CC(=O)N[C@@H](CC(=O)O)C(=O)N[C@H](C(=O)O)c2ccccc2)C1=O (stereo partly drawn) | 150 nM | 
16 | N=C(N)Nc1cccc(C2NC(=O)N(CC(=O)N[C@@H](CC(=O)O)C(=O)N[C@H](C(=O)O)c3ccccc3)C2=O)c1 (stereo partly drawn) | 6000 nM | 
17 | N=C(N)NCCC[C@@H]1NC(=O)N(CC(=O)N[C@@H](CC(=O)O)C(=O)N[C@@H](Cc2ccccc2)C(=O)O)C1=O | 10000 nM | 
18 | CCC1(c2ccc(C(=N)N)cc2)NC(=O)N(CC(=O)N[C@@H](CC(=O)O)C(=O)N[C@H](C(=O)O)c2ccccc2)C1=O (stereo partly drawn) | 25 nM | 
19 | N=C(N)c1ccc(C2(Cc3ccccc3)NC(=O)N(CC(=O)N[C@@H](CC(=O)O)C(=O)N[C@H](C(=O)O)c3ccccc3)C2=O)cc1 (stereo partly drawn) | 50 nM | 
20 | CC1(c2ccc(C(=N)N)cc2)NC(=O)N(CC(=O)N[C@@H](CC(=O)O)C(=O)N[C@H](C(=O)O)c2ccccc2)C1=O (stereo in doubt; 16) |  | IC50 (Homo sapiens): 40 nM
21 | CC1(c2ccc(C(=N)N)cc2)NC(=O)N(CC(=O)N[C@@H](CC(=O)O)C(=O)N[C@H](C(=O)O)c2ccccc2)C1=O (stereo in doubt; 17) |  | IC50 (Homo sapiens): 800 nM
22 | CCOC(=O)C[C@H](NC(=O)CN1C(=O)N[C@@](C)(c2ccc(C(=N)N)cc2)C1=O)c1ccccc1.O=C(O)/C=C\C(=O)O [CARAFIBAN MALEATE] |  | half-life [3]: 9.9 h
